4 molecules from patent publication US20240279202A1 (NURIX THERAPEUTICS, INC., priority 2021, published 2024) can be followed below.

The target of data set [1] is T1, ITK (Mus musculus, UniProt Q03526).
T1 construct: mice were sacrificed and splenocytes were isolated and used to prepare protein lysates; from tissue; host or cells: mouse splenocytes (spleen) after oral dosing
T1 sequence (Q03526 1-625): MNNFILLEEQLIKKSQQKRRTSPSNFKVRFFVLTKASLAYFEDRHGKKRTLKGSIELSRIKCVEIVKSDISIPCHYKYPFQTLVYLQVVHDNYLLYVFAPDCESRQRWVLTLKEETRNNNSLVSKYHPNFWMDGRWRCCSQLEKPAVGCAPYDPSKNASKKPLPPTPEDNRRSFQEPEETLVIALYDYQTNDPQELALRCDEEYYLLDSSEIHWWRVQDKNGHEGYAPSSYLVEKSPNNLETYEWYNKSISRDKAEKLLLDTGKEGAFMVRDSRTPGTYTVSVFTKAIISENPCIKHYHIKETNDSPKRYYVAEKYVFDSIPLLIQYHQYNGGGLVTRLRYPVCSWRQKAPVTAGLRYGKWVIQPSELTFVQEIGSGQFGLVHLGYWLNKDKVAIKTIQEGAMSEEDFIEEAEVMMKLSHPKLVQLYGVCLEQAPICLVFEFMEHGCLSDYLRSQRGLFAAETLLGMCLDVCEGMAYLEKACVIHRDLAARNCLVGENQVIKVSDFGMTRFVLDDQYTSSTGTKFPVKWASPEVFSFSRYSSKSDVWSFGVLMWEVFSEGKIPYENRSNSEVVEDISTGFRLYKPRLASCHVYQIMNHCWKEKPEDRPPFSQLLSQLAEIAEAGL
The data set is described as follows: Mouse PD assay for ITK degradation (Western blot, splenocytes after oral administration). The settings on record: percent ITK remaining in mouse splenocytes relative to vehicle, 90 mpk PO, 6 h. In kind it is in vivo. The procedure: (§1) Compounds 1, 3, 7, and 42 were formulated and administered at 90 mg/kg to mice by oral gavage (PO). Blood was collected at defined time points (after 1, 2, and 6 hours) after compounds administration to determine PK parameters. Concentration increased through 6 hours. Six hours later mice were sacrificed and splenocytes were isolated and used to prepare protein lysates. Total protein levels were determined in the lysates using the BCA assay according to standard methods. Equal amounts of protein were then analyzed by Western blot to determine the level of ITK expression in each sample. ITK band intensities were measured using Alpha View software and the percent of ITK remaining in each test animal was determined relative to the mean of ITK levels in vehicle control samples.
After 6 hours, splenocytes cells were harvested. ITK was evaluated by Western blotting.
Compounds 43, 4, 5, 10, 11, 12, 44, 14, 3, and 13 were administered to mice orally. After 6 hours, splenocytes cells were harvested. ITK was evaluated by Western blotting. Media was removed and cell pellets were lysed in 100 uL lysis buffer (RIPA buffer (Fisher, PI89901), cOmplete Mini EDTA-free protease inhibitor (Sigma 11836170001), Protease Inhibitor Cocktail (Sigma, P2714), Phosphatase Inhibitor Cocktail 2 and 3 (Sigma, P5726 and P0044), Benzonase (Sigma, E1014)). Cells were lysed overnight at −20° C. Following thaw, cells were centrifuged for 10 min at 13000 rpm, then transferred to new tube. Protein levels were determined by BCA Assay performed according to manufacturer's protocol (EMID Millipore, cat. no. 71285-3). Samples were combined with (4×) LDS Sample Buffer and (10×) Reducing Agent and H2O to equally load 20 ug protein per lane of a 26-well NuPAGE 4-12% Bis-Tris protein gel (1.0 mm, Thermo cat. no. NP0326). Samples were separated by running gels at constant 150 V in NuPAGE MES SDS Running Buffer. Following electrophoresis, proteins were transferred to nitrocellulose membranes using an iBlot Gel Transfer Device and iBlot Gel Transfer Stacks (Thermo cat. no. IB21001 and IB301001) and transfer method P3 (20V for 7 min). Membranes were blocked for 1 hr in 5% milk solution (TBS (0.2% Tween-20)). Following blocking, membranes were incubated with primary antibody (1:1000 CST ITK (2F12) #2380) overnight at 4° C. with gentle shaking. Blots were washed 2× in TBS (0.2% Tween-20), 30 min per wash. Following washes, blots were incubated in secondary HRP-conjugated antibody (Promega anti-Mouse IgG (H+L) HRP cat. no. W4021), 1:5000 in 5% milk solution (TBS (0.2% Tween-20)), for 1 hr at room temperature with gentle shaking. Blots were washed 2× in TBS (0.2% Tween-20), 30 min per wash. Blots were incubated with 1:1 mix of ECL reagents 1 & 2 (Amersham ECL Western Blotting Detection Reagent, cat. no. RPN2106) for 2 min at room temperature. Bands were visualized using a Protein Simple imager. Blots were then re-probed with a combination of anti-actin antibody (Sigma Monoclonal Mouse Anti-3-Actin (clone AC-15), cat. no. A5441) and secondary H1RP-conjugated antibody (Promega anti-Mouse IgG (H+L) HRP, cat. no. W4021) and similar steps were taken for incubation, wash, detection and visualization steps as above. The data was analyzed using Alpha View software. The densitometric reading for each sample band was normalized to that of the corresponding actin band per lane. Approximate % ITK remaining per sample was calculated as follows: […]
Once % ITK remaining has been calculated for each sample, groups are averaged together to show an means % ITK normalized to actin and relative to control.
Compounds 16, 17, and 18 were administered to mice orally. After 6 hours or 24 hours, splenocytes cells were harvested. ITK was evaluated by Western blotting. Plasma concentrations were determined by LC/MS/MS. Plasma samples were protein precipitated by addition of 100 μl of acetonitrile containing 50 ng/ml of internal standard. The resulting mixture was vortexed and centrifuged at 4000 RPM for 5 minutes. […]

Data set [2] in a line: Mouse PK analysis (blood/plasma concentration after oral administration). In kind it is in vivo. Particulars: mouse; mice, oral, plasma. Here is the method: as §1
Compounds 16, 17, and 18 were administered to mice orally. After 6 hours or 24 hours, splenocytes cells were harvested. ITK was evaluated by Western blotting. Plasma concentrations were determined by LC/MS/MS. Plasma samples were protein precipitated by addition of 100 μl of acetonitrile containing 50 ng/ml of internal standard. The resulting mixture was vortexed and centrifuged at 4000 RPM for 5 minutes. An aliquot of the resultant supernatant (75 μl) was added to 75 μl of 0.1% formic acid in water to constitute the final sample for injection. Samples were injected on a Shimadzu Exion LC Binary Gradient AD Pump HLPC system connected to a Sciex QTRAP 6500+mass spectrometer. Five μl of sample was injected onto a Waters Acquity UPLC BEH C18 column 130A (2.1×30 mm, […]) at 40° C. utilizing a flow rate of 700 μl/minute. Mobile Phase A was 0.1% formic acid in water and mobile phase B was 0.1% formic acid in acetonitrile. A linear gradient of 15-95% B over 1.0 minute was used. The mass spectrometer was operated in positive ion electrospray mode with multiple reaction monitoring for maximum sensitivity. Sciex Analyst software (version 1.6.3) was used for LC/MS/MS instrument control and acquisition. Compound concentration was determined against a standard curve of internal standard versus compound peak area ratio. Noncompartmental PK parameters were determined using […] software (version 8.2.0.4383) from Certara. Plasma concentrations from the LC/MS/MS analyses, dose, route of administration, and desired units were utilized for PK parameter calculations. […] FIG. 4C provides the concentration over time of compound 17 following in vivo oral administration in the 6 hour and 24 hour assays.
Cmax, Tmax and AUClast were all calculated using a WinNonLin Phoenix 64 v 8.2.0.4383. Using non-compartmental analysis, Tmax, Cmax and AUClast were determined as follows: • Tmax—Time of maximum observed concentration. • Cmax—Maximum observed concentration, occurring at time Tmax, as defined above. • AUClast—Area under the curve from the time of dosing to the time of the last measurable (positive) concentration (Tlast).

The target of data set [3] is T2, ITK (Homo sapiens, UniProt Q08881).
T2 sequence (Q08881 1-620): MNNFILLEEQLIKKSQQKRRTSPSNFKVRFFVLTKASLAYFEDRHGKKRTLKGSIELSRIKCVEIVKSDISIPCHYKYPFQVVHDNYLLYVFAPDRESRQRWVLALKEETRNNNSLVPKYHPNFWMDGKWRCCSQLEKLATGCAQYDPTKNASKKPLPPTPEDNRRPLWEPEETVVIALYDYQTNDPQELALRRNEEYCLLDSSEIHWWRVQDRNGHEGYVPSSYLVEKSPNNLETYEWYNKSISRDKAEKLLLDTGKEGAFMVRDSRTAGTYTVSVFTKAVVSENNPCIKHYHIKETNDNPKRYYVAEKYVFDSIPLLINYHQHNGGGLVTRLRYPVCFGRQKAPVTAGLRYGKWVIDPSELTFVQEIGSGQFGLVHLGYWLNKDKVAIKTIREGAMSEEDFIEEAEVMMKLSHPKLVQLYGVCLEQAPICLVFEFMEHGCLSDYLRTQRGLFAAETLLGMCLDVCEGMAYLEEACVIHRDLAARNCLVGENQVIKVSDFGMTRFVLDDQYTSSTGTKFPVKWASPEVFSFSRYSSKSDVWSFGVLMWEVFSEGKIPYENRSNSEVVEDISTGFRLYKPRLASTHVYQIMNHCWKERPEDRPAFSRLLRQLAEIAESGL
Briefly: ITK degradation HiBiT assay. In kind it is cell-based. On the set-up: expressed in transfected cells; host or cells: Molt4 (ATCC CRL-1552), monoclonal clone 1C10, engineered to carry the HiBiT tag. Particulars: 4 hrs; for Dmax: MOLT-4, C-terminal HiBiT-tagged Molt4 cells. The method in brief: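 C-terminal HiBiT-tagged Molt4 cells (clone 1C10) treated 4 h at 32° C with an 11-point, 5-fold compound dilution series (0.5% DMSO). HiBiT lytic detection with LgBiT then luminescence read; % ITK remaining versus concentration fit by four-parameter variable-slope model to give DC50 and Dmax.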

On to `CN(C(=O)CC1CCN(c2ccc(C3CCC(=O)NC3=O)cn2)CC1)c1ccc2cc(-c3n[nH]c4c3C[C@@H]3C(F)(F)[C@]3(C)C4)[nH]c2c1` (stereo partly shown) [Compound 20], for which the “ITK (%) 90 mpk PO, 6 h” value on ITK [1] is 66%.

`C[C@@]12Cc3[nH]nc(C(=O)Nc4cnn([C@H](c5ccccc5)C5CN(C(=O)C6CN(c7ccc(C8CCC(=O)NC8=O)cn7)C6)C5)c4)c3C[C@@H]1C2(F)F` (stereo partly drawn) [Compound 51, (4aS,5aR)-N-(1-((1S)-(1-(1-(5-(2,6-dioxopiperidin-3-yl)pyridin-2-yl)azetidine-3-carbonyl)azetidin-3-yl)(phenyl)methyl)-1H-pyrazol-4-yl)-5,5-difluoro-5a-methyl-1,4,4a,5,5a,6-hexahydrocyclopropa[f]indazole-3-carboxamide]: in data set [2], the AUC(0-t) is 2.34 µM·h, the Cmax stood at 720 nM and the Tmax came to 6 h.

In the case of `CC1(C)CCc2c(-c3cc4ccc(C(=O)N5CCC(C6CCN(c7ccc(C8CCC(=O)NC8=O)cn7)CC6)CC5)cc4[nH]3)n[nH]c2C1` (stereo not shown) [Compound 58, 3-(6-(1′-(2-(6,6-dimethyl-4,5,6,7-tetrahydro-1H-indazol-3-yl)-1H-indole-6-carbonyl)-[4,4′-bipiperidin]-1-yl)pyridin-3-yl)piperidine-2,6-dione], the DC50 at ITK [3] (C-terminal HiBiT-tagged Molt4 cells) was found to be 13.4 nM. Further, the Dmax at ITK [3] stood at 69%. In data set [2], the AUC(0-t) is 0.18 µM·h, the Cmax amounted to 61 nM and the time to peak (Tmax) worked out at 1.5 h.

Molecule `CC1(C)CCc2c(-c3cc4ccc(C(=O)N5CCC(CN6CCC7(C6)CN(c6ccc(C8CCC(=O)NC8=O)cn6)C7)CC5)cc4[nH]3)n[nH]c2C1` (stereo not shown) [Compound 61, 3-(6-(6-((1-(2-(6,6-dimethyl-4,5,6,7-tetrahydro-1H-indazol-3-yl)-1H-indole-6-carbonyl)piperidin-4-yl)methyl)-2,6-diazaspiro[3.4]octan-2-yl)pyridin-3-yl)piperidine-2,6-dione] returned a Dmax at ITK [3] of 83%. In data set [2], the AUC(0-t) came out at 0.08 µM·h, the peak level (Cmax) was 23 nM and the Tmax came out at 1.5 h.
